US6589758B1, “Crystal of a kinase-ligand complex and methods of use” (priority 2000, dated 2003)
Where two headings read alike, the source gives them in different places.

Key:
[1] = biological target: Lck (Homo sapiens, UniProt P06239); settings: reported in ref [51]; cited from earlier work
[2] = tested on: TCR-induced IL-2 secretion from hPBL T-cells; assay: T-cell activation: TCR-induced IL-2 secretion from hPBL T-cells (ELISA); assay type: cell-based; settings: anti-CD3/anti-CD28 stimulation, 20 hours, FIG. 7B, read-out: IC50 inhibition of IL-2 production in human T-cell cultures
Experimental: T-cell activation. Whole blood was obtained from normal donors and human peripheral blood lymphocytes (hPBL) were isolated by ficol-hypaque density centrifugation. T-cells were then purified from the hPBL by negative selection using an R&D column following the manufacturers directions (R&D Systems, Minneapolis, Minn.). A 96-well flat-bottomed plate was coated with 10 μg/ml of goat anti-mouse (GAM)-IgG1 (Caltag, Burlingame, Calif.) in PBS overnight at 4C. The GAM-coated plate was flicked out and anti-CD3 mAb (UCHT-1, Coulter/Immunotech, Miami, Fla.) is added at 0.2 μg/ml in AIMV medium (Gibco, Grand Island, N.Y.) for 3 hr. at 37C. Purified T-cells were pre-incubated at 1×10^5/well in AIM V with or without compound for 30 minutes then transferred to the anti-CD3 capture plate. Finally, anti-CD28 (Pharmingen, San Diego, Calif.) in AIMV (150 ng/ml final) was added to each well. Cells were incubated for 20 hours at 37C in 5% CO2 then supernatants were tested by ELISA for cytokine levels (Endogen, Woburn, Mass.).

[3] = tested on: TCR-induced phosphotyrosine incorporation into TCR p23 ζ-chain and a 70 kDa protein, Jurkat cells; assay type: cell-based; settings: FIG. 7C
Experimental: Phosphotyrosine western blotting. […] Cells were then transferred to 37° C. water bath for 1 minute. Stimulation was stopped by the addition of 5 volumes of cold PBS containing 200 μM sodium orthovanadate. Cells were spun down and lysed in 150 mM Tris/10 mM HEPES buffer, pH 7.3, containing 1% Triton X-100 and Complete protease inhibitor cocktail (Boehringer Mannheim, Germany) for 30 minutes on ice. […] Blots were probed with anti-phosphotyrosine (4G10, Upstate Biotechnology, Inc., Saranac Lake, N.Y.) and developed using ECL-plus following the manufacturers directions (Amersham, Arlington Heights, Ill.).

[4] = biological target: T1, ZAP-70 (Homo sapiens, UniProt P43403); settings: reported in ref [51]; read-out: IC50 against ZAP-70; cited from earlier work
T1 sequence (P43403 1-619): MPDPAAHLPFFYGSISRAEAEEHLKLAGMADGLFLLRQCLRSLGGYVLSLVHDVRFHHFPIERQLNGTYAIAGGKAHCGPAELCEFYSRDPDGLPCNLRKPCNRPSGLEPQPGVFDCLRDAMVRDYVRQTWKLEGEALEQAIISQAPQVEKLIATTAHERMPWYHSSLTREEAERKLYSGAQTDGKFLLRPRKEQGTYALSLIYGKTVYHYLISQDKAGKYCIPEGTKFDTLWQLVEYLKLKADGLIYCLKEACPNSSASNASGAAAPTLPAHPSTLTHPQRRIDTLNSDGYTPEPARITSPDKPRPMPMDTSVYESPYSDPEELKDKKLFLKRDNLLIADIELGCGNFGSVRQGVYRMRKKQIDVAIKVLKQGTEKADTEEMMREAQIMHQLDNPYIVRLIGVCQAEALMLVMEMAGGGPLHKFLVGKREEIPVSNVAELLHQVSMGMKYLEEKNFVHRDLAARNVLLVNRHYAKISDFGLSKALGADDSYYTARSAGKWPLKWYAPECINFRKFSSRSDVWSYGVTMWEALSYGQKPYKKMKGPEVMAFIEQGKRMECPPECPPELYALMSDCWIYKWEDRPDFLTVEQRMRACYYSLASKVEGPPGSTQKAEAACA

Lck, sequence (P06239 whole entry, species assumed): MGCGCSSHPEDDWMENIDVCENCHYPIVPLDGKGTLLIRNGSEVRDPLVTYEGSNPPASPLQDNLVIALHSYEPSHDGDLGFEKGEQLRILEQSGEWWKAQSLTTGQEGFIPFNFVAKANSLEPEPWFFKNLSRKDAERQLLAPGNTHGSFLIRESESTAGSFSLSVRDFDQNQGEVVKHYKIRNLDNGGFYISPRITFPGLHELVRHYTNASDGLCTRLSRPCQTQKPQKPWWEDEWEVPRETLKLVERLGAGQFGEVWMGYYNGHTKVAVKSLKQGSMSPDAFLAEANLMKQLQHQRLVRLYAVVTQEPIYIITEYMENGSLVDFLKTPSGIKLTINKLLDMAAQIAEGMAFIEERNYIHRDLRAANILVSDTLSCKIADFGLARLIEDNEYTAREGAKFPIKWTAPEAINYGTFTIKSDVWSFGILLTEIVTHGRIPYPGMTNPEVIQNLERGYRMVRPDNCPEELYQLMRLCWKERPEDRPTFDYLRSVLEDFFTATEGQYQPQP

## Cc1ccc(-c2nn(C(C)(C)C)c3ncnc(N)c23)cc1 [PP1]
[1]
  inhibitory activity against Lck compared with PP2: approximately the same inhibitory activity

## CN[C@@H]1C[C@H]2O[C@@](C)([C@@H]1OC)n1c3ccccc3c3c4c(c5c6ccccc6n2c5c31)C(=O)NC4 [staurosporine]
[2]; Homo sapiens, T-cell
  IC50: 60 nM

## CC(C)(C)n1nc(-c2ccc(Cl)cc2)c2c(N)ncnc21 [PP2]
[2]
  IC50: 600 nM
[3]
  inhibition of Lck-dependent phosphorylation of the TCR ζ-chain (p23): dose-dependent inhibition
  inhibition of phosphorylation of a 70 kD protein (likely ZAP-70): inhibited
[4]
  IC50: ≥ 100000 nM
